Eight compounds from patent US6878690B2, “Compounds and methods” (PharmAxis Pty Ltd., priority 2000, dated 2005) can be followed below.

Assay [1] deals with myelin basic protein (MBP)-specific T lymphocyte cell lines. The assay can be described thus: Inhibition of T-lymphocyte migration across rat brain endothelial cell layer (Transwell, 51Cr-labelled cells). It is filed as cell-based, Lewis rats. The settings on record: test substance 10 mmolar in upper well; 6 hours; in comparison with the negative control (glucose 6-phosphate); triplicate. The source says: Vascular endothelial cells were isolated from rat brain capillaries taken from 6 to 8 week old Lewis rats according to the method of Risau et al. (Risau, W., Engelhardt, B., and Wekerle, H., (1990). Journal of Cell Biology, vol 110, p 1757-1766, which is incorporated herein by reference). Colonies of endothelial cells were purified from astroglial cells and pericytes by a Thy1.1-mediated complement lysis also after the method of Risau et al. (vide supra). The endothelial colonies, according to methods known in the art, were grown in Dulbecco's minimum essential medium (DMEM) high glucose supplemented, with 20% fetal calf serum (FCS), glutamine, pyruvate, nonessential amino acids, 4-(2-hydroxyethyl)-1-piperazine ethane sulfonic acid buffer (HEPES), kanamycin, amphotericin, heparin (all from Gibco) and 150 micrograms/ml endothelial growth supplement (Collaborative Biomedical Products). Upon reaching confluence, the endothelial cultures were washed with 0.2% EDTA in phosphate buffered saline (PBS), trypsinized (Trypsin-EDTA, 0.1% final concentration, Gibco), washed and again incubated with anti-Thy1.1 antibody for 40 minutes, washed and incubated with complement sufficient to lyse all Thy1.1+ cells (Behringwerke, AG, Marburg, Germany) at room temperature, washed and plated on matrigel-coated 6.5 mm Transwells, […] (Corning Costar Corporation, Cambridge, Mass.). The endothelial cell characteristics and confluence of the monolayer were checked by measuring the electrical resistance (World Precision Instruments, New Haven, U.S.A., model EVOM-G) and by staining with FITC-labeled phalloidin (Sigma). In order to study the effect of the agents of the present invention on T lymphocyte migration, myelin basic protein (MBP)-specific T lymphocyte cell lines were generated according to the method of Ben-Nun et al. (Ben-Nun, A., Wekerle, H. and Cohen, I. R., 1981). The rapid isolation of clonable antigen-specific T lymphocyte lines capable of mediating autoimmune encephalomyelitis. European Journal of Immunology. 1981, 11(3), 195-199; incorporated herein by reference) from the lymph nodes of Lewis rats that had been immunised with MBP in Freund's complete adjuvant. These cells were used for migration studies during the first 4 days of their propagation in IL-2 containing medium, following antigen (MBP) restimulation in the presence of antigen-presenting cells from irradiated spleen cells or thymocytes taken from normal Lewis rats. The antigen-activated T lymphocytes were radio-labelled with sodium chromate (^51Cr, 37 MBq/ml, Amersham, UK) for 30 minutes at 37° C. with occasional agitation, they were then washed three times with the DMEM culture medium and placed into the upper chamber of the Transwells at 5×10^5 cells in 100 microliters of migration medium. Test and control substance were included in the upper wells at final concentrations of 0.1, 1 and 10 mM. Cell migration was monitored by light microscopy in order to gauge progress of the experiment. […] The combined material was transferred into scintillation vials and the radioactivity of each tube determined by counting for 1 minute in a Packard Auto-Gamma 5650 (IL, USA) gamma counter. Each test and the control substance (glucose 6-phosphate) and no treatment were assessed in triplicate. […]

In assay [2] the test system is passively transferred adjuvant arthritis. The assay is described as follows: Passively transferred adjuvant induced arthritis. Format: in vivo, DA rats. The note with it: 37 mg/kg/day, end of the two week treatment period, FIG. 2. The protocol:
Male DA rats 8 to 10 week old were immunised with three 100 microliter injections of Complete Freund's Adjuvant (CFA) intradermally at the base of the tail. The CFA was prepared by mixing 8 mg/ml of Mycobacterium butyricum (Difco Laboratories, USA) that had been ground to a fine powder using a mortar and pestle, in 85% light mineral oil (Sigma, USA) and 15% mannide monooleate (Sigma) and emulsifying this suspension, one part in one part saline. Thus, the final emulsion contained 4 mg/ml of M. butyricum.
Ten days after immunisation the rats were euthanased and the spleens removed aseptically. A single cell suspension was prepared in the usual manner in mixed lymphocyte culture medium (MLC) (Dulbecco's Modified Eagle's Medium (DMEM) plus glucose, folic acid, L-asparagine, sodium pyruvate, HEPES, 2-mercapto ethanol, penicillin, streptomycin, neomycin and 10% fetal calf serum) by pushing the spleens through a stainless steel sieve. The cells were placed in culture in MLC medium with 2 micrograms/ml concanavalin A added such that the lymphocyte concentration was 2 million cells per milliliter. These cells were cultured aseptically at 37° C. in an atmosphere containing 5% carbon dioxide for 72 hours.
Groups of 4 or 5 DA rats, 6 to 8 weeks of age were anesthetised with diethyl ether and implanted subcutaneously on the flank with Alzet 2002 (2 week delivery) or 2001 (1 week delivery) mini-osmotic pumps (Alza Corp., Palo Alto Calif., USA). One treatment group received phosphoric acid mono-(6-propyl-3,4,5-trihydroxy-tetrahydro-pyran-2-ylmethyl) ester in the one week delivery Alzet 2001 mini-osmotic pumps. The drug was delivered at a dose of 25 mg/kg/day. The control group for this experiment received identical mini-osmotic pumps containing normal saline. In a second experiment another group of DA rats received ethyl (3,4,5-trihydroxy-6-phosphonooxymethyl-tetrahydro-pyran-2-yl)-acetic acid ester in the two week delivery Alzet 2002 mini-osmotic pumps. This drug was delivered at a dose of 37 mg/kg/day. Control animals for this group received saline delivered in identical mini-osmotic pumps. The pumps in each case were implanted subcutaneously on the flank of each animal. […]
After 5 to 8 days, a characteristic thickening and cutaneous hyperemia of the distal joints of the hind legs became clinically apparent in the saline control animals. Disease severity was evaluated and graded in each group by taking daily measurements of the mediolateral widths of both ankle joints. The data were expressed as the mean of the change (compared with width prior to cell injection) in mediolateral ankle width expressed in millimeters (±standard error of the mean).

In assay [3] the test system is DTH response to 2,4-dinitrofluorobenzene (DNFB). The assay is described as follows: Delayed-type hypersensitivity (DTH) response to DNFB, ear swelling. It is filed as in vivo, Balb/C mice.
Assay [4] has as its system lymphocyte migration into the spleen. The assay is described as follows: Inhibition of lymphocyte migration into lymphoid tissue (spleen). It is filed as in vivo, Balb/C mice. The settings on record: intravenous dose of 5 mg of test compound together with labelled lymphocytes; spleens removed 1.5 hours after injection. The source says: In the present example, spleens from specific pathogen free 6-8 week old female Balb/C mice [19-21 g] were used to prepare a single cell suspension in the usual manner in mixed lymphocyte culture medium (DMEM plus glucose, folic acid, L-asparagine, sodium bicarbonate, L-glutamine, sodium pyruvate, HEPES, 2-mercaptoethanol, penicillin, streptomycin, neomycin, and 2% fetal calf serum) by pushing through a stainless steel screen. Following cell collection the red blood cells were lysed in the usual manner by treating with a solution of ammonium chloride, EDTA and sodium hydrogen carbonate (pH 7.3) and the preparation strained (Falcon 2350 cell strainer). All cell preparative steps were performed on ice.
In order to deplete the preparation of B lymphocytes, the cells were suspended in purified rat anti-mouse CD45/B220 antibody (RA3-6B2 clone; PharMingen, USA) at a concentration of 4×10^7 cells per ml and incubated on ice for 20 minutes. An equal volume of mixed lymphocyte culture medium (as above) was then added and the cells centrifuged (200× g) and resuspended at a concentration of 1×10^7 cells per ml in BioMag goat ant-rat IgG (H&L) linked to magnetic beads (Bio Mag; Perseptive Diagnostics, Polysciences Inc, USA). Following a 20 minute incubation on ice, with agitation every 5 minutes, the goat anti-rat IgG/antibody complex was removed using magnetic separation (Dynal MPC-6, Dynal, USA). The magnetic separation procedure was repeated 4 times giving a cell population containing approximately 80-90% T lymphocytes (determined by FACS analysis).
The cells were then washed in Hanks media, resuspended in 5 ml of Hanks, and radio-labelled for 30 minutes at 37° C. with sodium chromate solution (^51Cr, 34 MBq/ml, Amersham, UK). The labelled cells were washed in PBS centrifuged (200×g) and a portion were resuspended at a concentration of 3×10^7 cells/ml in either PBS (negative control), or PBS containing the test compound (25 mg/ml), and stored on ice. Balb/C mice in the negative control and treatment groups received a volume of 0.2 ml of the labelled cell preparation by a lateral tail vein injection. Negative control mice received 0.2 ml of PBS together with 6×10^6 51chromium-labelled lymphocytes, and mice from the treated groups received an intravenous dose of 5 mg of the test compound together with 6 million ^51chromium-labelled lymphocytes. […]
Spleens from the recipient mice were removed 1.5 hours after injection and the cell-associated radioactivity (CPM) determined using a gamma counter (Packard Auto-Gamma 5650. IL, USA). Results (inhibition of lymphocyte migration into the spleen) were expressed as a percentage reduction in the CPM of the spleens from treated animals compared with negative controls.

“And” between values parts separate entries of the source, which are not always exact repeats. Equal values may be shown once.

For the compound `CCOC(=O)CC1OC(COP(=O)(O)O)C(O)C(O)C1O` (stereo not drawn) [Ethyl (3,4,5-trihydroxy-6-phosphonooxymethyl-tetrahydro-pyran-2-yl)-acetic acid ester], in assay [1], the “% inhibition ± SEM” value amounted to 70 ± 4%. For the same compound, in assay [2] (two week Alzet 2002 pump subcutaneously, controls severe swelling), the “swelling in the affected joints of treated animals” value is listed as “little swelling”. Moreover, in assay [2] (two week Alzet 2002 pump), the “disease status of the treated versus the control animals” value is “highly statistically significant difference”. On to `O=C([O-])CC1OC(COP(=O)(O)O)C(O)C(O)C1O.O=C([O-])CC1OC(COP(=O)(O)O)C(O)C(O)C1O.[Na+].[Na+]` (stereo not drawn) [(3,4,5-trihydroxy-6-phosphonooxymethyl-tetrahydro-pyran-2-yl)-acetic acid disodium salt], for which, in assay [3] (45 mg/kg/day intraperitoneally, versus saline controls), the “Mean percentage decrease in ear swelling in treated animals” value is “Mean percentage decrease in ear swelling intreated animals: 29.4%”. For the same compound, in assay [3] (group mean, 45 mg/kg/day intraperitoneally, saline control mean 0.068), the “Mean Difference, Treated” value came out at 0.048 millimeters. Moreover, in assay [3] (individual mice, 45 mg/kg/day, mini-osmotic pump intraperitoneally, 24 hours after challenge, disodium salt), the “Difference (right minus left ear), Treated” value was 0.06 millimeters (2×) and 0.05 millimeters (3×) and 0.03 millimeters (3×) and 0.07 millimeters. In assay [3] (individual mice, challenged ear, 45 mg/kg/day, mini-osmotic pump intraperitoneally, 24 hours after challenge, disodium salt), the “Right ear thickness, Treated” value is 0.27 millimeters (3×) and 0.24 millimeters (2×) and 0.29 millimeters and 0.26 millimeters (3×). Also, in assay [3] (individual mice, control (unchallenged) ear, 45 mg/kg/day, mini-osmotic pump intraperitoneally, 24 hours after challenge, disodium salt), the “Left ear thickness, Treated” value was 0.21 millimeters (6×) and 0.22 millimeters (2×) and 0.23 millimeters. Further, the “Percent Inhibition (relative to negative controls) of lymphocyte migration into spleens” value in assay [4] is recorded as 85.5%. Take `O=C[C@H](O)[C@@H](O)[C@H](O)[C@H](O)COP(=O)(O)O` [glucose 6-phosphate, reference compound]: the “% inhibition ± SEM” value in assay [1] is listed as 0 ± 5%.

Regarding `O=C(O)CC1OC(COP(=O)(O)O)C(O)C(O)C1O` (stereo not drawn) [(3,4,5-trihydroxy-6-phosphonooxymethyl-tetrahydro-pyran-2-yl)-acetic acid], the “% inhibition ± SEM” value in assay [1] was 32 ± 2%. As to `O=P([O-])(O)OCC1OCC(O)C(O)C1O.[Na+]` (stereo not drawn) [mono-(3,4,5-trihydroxy-tetrahydro-pyran-2-ylmethyl)phosphoric acid ester mono sodium salt], in assay [4], the “Percent Inhibition (relative to negative controls) of lymphocyte migration into spleens” value was 68.0%. In the case of `CCCCCOC(=O)CC1OC(COP(=O)(O)O)C(O)C(O)C1O` (stereo not drawn) [Pentyl (3,4,5-trihydroxy-6-phosphonooxymethyl-tetrahydro-pyran-2-yl)-acetic acid ester], the “% inhibition ± SEM” value in assay [1] was 80 ± 4%. `CCOC(=O)CC1OC(COP(=O)([O-])O)C(O)C(O)C1O.[Na+]` (stereo not drawn) [Ethyl (3,4,5-trihydroxy-6-phosphonooxymethyl-tetrahydro-pyran-2-yl)-acetic acid ester sodium salt]: in assay [4], the “Percent Inhibition (relative to negative controls) of lymphocyte migration into spleens” value was determined as 32.4%. Still for that read-out and setting: the result for `N#CC1OC(COP(=O)([O-])[O-])C(O)C(O)C1O.[Na+].[Na+]` (stereo not drawn) [6-cyano-3,4,5-trihydroxy-tetrahydro-pyran-2-ylmethyl phosphoric acid ester disodium salt] reads 45.0%.
